Biological target: T1, Savinase® 16.0L (Lederbergia lenta, UniProt P29600)
T1 construct: purchased Sigma-Aldrich
T1 sequence (P29600 1-269): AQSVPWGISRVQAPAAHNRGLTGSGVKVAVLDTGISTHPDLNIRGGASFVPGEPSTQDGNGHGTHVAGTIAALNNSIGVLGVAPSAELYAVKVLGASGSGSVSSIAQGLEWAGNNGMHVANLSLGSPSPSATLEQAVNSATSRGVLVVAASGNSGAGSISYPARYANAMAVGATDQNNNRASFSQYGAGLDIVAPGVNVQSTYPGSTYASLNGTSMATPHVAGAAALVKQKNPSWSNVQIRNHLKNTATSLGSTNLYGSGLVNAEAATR
Assay: Protease storage stability in liquid formulations at 37° C. (Suc-AAPF-pNA assay)
Assay type: biochemical
Details: 0.7 wt% Savinase 16.0 L
Procedure: The storage stability of protease was assessed at 37° C.
Base test formulations were manufactured by making base formulations I to V by mixing the components according to Table 1.
Protease used: Savinase® 16.0L (CAS-No. 9014-01-1, EC-No. 232-752-2) was purchased from Sigma-Aldrich.
The respective component (a) or comparative compound was added, if applicable, to the respective base formulation in amounts as indicated in Table 1.
The amount of protease as provided in Table 1 refers to active protein.
Water was added to accomplish the balance to 100.
Savinase activity at certain points in time as indicated in Table 2 was be determined by employing Succinyl-Ala-Ala-Pro-Phe-p-nitroanilide (Suc-AAPF-pNA, short AAPF) as substrate. pNA is cleaved from the substrate molecule by proteolytic cleavage, resulting in release of yellow color of free pNA which was determined by measuring OD405. Measurements were done at 20° C.
The proteolytic activity values provided in Table 3 were calculated referring to the 100% value determined in the reference formulation at the time 0.
The nomenclature of formulations is as follows: the Roman number before the full stop characterizes the base formulation, the Arabian number the type of compound (A. # compound according to invention (component (a)); (B. #) comparative compound).

[1] = base formulation I, 2.5 wt% compound, 3 d
[2] = base formulation I, 2.5 wt% compound, 7 d
[3] = base formulation I, 2.5 wt% compound, 14 d
[4] = base formulation I, 2.5 wt% compound, 21 d
[5] = base formulation I, 2.5 wt% compound, 28 d
[6] = base formulation I, 2.5 wt% compound, 35 d
[7] = base formulation II, 2.5 wt% compound, 3 d
[8] = base formulation II, 2.5 wt% compound, 7 d
[9] = base formulation II, 2.5 wt% compound, 14 d
[10] = base formulation II, 2.5 wt% compound, 21 d
[11] = base formulation II, 2.5 wt% compound, 28 d
[12] = base formulation II, 2.5 wt% compound, 35 d

## CC(=O)OCC(COC(C)=O)OC(C)=O [B.4, glyceroltriacetate, reference compound]
[1]
  protease activity in the course of time of storage at 37° C.: 91%
[2]
  protease activity in the course of time of storage at 37° C.: 84%
[3]
  protease activity in the course of time of storage at 37° C.: 70%
[4]
  protease activity in the course of time of storage at 37° C.: 66%
[5]
  protease activity in the course of time of storage at 37° C.: 61%
[6]
  protease activity in the course of time of storage at 37° C.: 56%
[7]
  protease activity in the course of time of storage at 37° C.: 87%
[8]
  protease activity in the course of time of storage at 37° C.: 80%
[9]
  protease activity in the course of time of storage at 37° C.: 73%
[10]
  protease activity in the course of time of storage at 37° C.: 58%
[11]
  protease activity in the course of time of storage at 37° C.: 57%
[12]
  protease activity in the course of time of storage at 37° C.: 54%

## Diethylcitrate [A.7]
[1]
  protease activity in the course of time of storage at 37° C.: 95%
[2]
  protease activity in the course of time of storage at 37° C.: 91%
[3]
  protease activity in the course of time of storage at 37° C.: 85%
[4]
  protease activity in the course of time of storage at 37° C.: 81%
[5]
  protease activity in the course of time of storage at 37° C.: 76%
[6]
  protease activity in the course of time of storage at 37° C.: 69%
Base formulation I, 2.5 wt% compound, T0
  protease activity in the course of time of storage at 37° C.: 100%
[7]
  protease activity in the course of time of storage at 37° C.: 98%
[8]
  protease activity in the course of time of storage at 37° C.: 96%
[9]
  protease activity in the course of time of storage at 37° C.: 94%
[10]
  protease activity in the course of time of storage at 37° C.: 90%
[11]
  protease activity in the course of time of storage at 37° C.: 87%
[12]
  protease activity in the course of time of storage at 37° C.: 83%
Base formulation II, 2.5 wt% compound, T0
  protease activity in the course of time of storage at 37° C.: 98%
Base formulation III, 2.0 wt% compound, 3 d
  protease activity in the course of time of storage at 37° C.: 96%
Base formulation III, 2.0 wt% compound, 7 d
  protease activity in the course of time of storage at 37° C.: 93%
Base formulation III, 2.0 wt% compound, 14 d
  protease activity in the course of time of storage at 37° C.: 84%
Base formulation III, 2.0 wt% compound, 21 d
  protease activity in the course of time of storage at 37° C.: 83%
Base formulation III, 2.0 wt% compound, 28 d
  protease activity in the course of time of storage at 37° C.: 76%
Base formulation III, 2.0 wt% compound, 35 d
  protease activity in the course of time of storage at 37° C.: 72%
Base formulation III, 2.0 wt% compound, T0
  protease activity in the course of time of storage at 37° C.: 100%

— US20210395650A1, “COMPOUNDS STABILIZING HYDROLASES IN LIQUIDS” (BASF SE, priority 2018, published 2021)
